Test results published in US10053667B2, “Differentiation of human pluripotent stem cells to multipotent neural crest cells” (UNIVERSITY OF GEORGIA RESEARCH FOUNDATION, INC., priority 2010, dated 2018).
Entries after “also recorded” stand apart in the source; their conditions may differ.

B1: Noggin: BMP inhibitor protein (R&D systems) (protein, UniProt Q13253 28-232, looked up)
Noggin: QHYLHIRPAPSDNLPLVDLIEHPDPIFDPKEKDLNETLLRSLLGGHYDPGFMATSPPEDRPGGGGGAAGGAEDLAELDQLLRQRPSGAMPSEIKGLEFSEGLAQGKKQRLSKKLRRKLQMWLWSQTFCPVLYAWNDLGSRFWPRYVKVGSCFSKRSCSVPEGMVCKPSKSVHLTVLRWRCQRRGGQRCGWIPIQYPIISECKCSC
B2: Dickkopf: a Wnt antagonist (R&D Systems) (protein, UniProt O94907 32-266, looked up)
Dickkopf-related protein 1: TLNSVLNSNAIKNLPPPLGGAAGHPGSAVSAAPGILYPGGNKYQTIDNYQPYPCAEDEECGTDEYCASPTRGGDAGVQICLACRKRRKRCMRHAMCCPGNYCKNGICVSSDQNHFRGEIEETITESFGNDHSTLDGYSRRTTLSSKMYHTKGQEGSVCLRSSDCASGLCCARHFWSKICKPVLKEGQVCTKHRRKGSHGLEIFQRCYCGEGLSCRIQKDHHQASNSSRLHTCQRH
B3: BMP4: bone morphogenic protein added to SB media (R&D Systems) (protein, UniProt P12644 293-408, looked up)
Bone morphogenetic protein 4: SPKHHSQRARKKNKNCRRHSLYVDFSDVGWNDWIVAPPGYQAFYCHGDCPFPLADHLNSTNHAIVQTLVNSVNSSIPKACCVPTELSAISMLYLDEYDKVVLKNYQEMVVEGCGCR
B4: Wnt3a: recombinant Wnt protein, Wnt signaling promoter (protein, UniProt P56704 19-352, looked up)
Protein Wnt-3a: SYPIWWSLAVGPQYSSLGSQPILCASIPGLVPKQLRFCRNYVEIMPSVAEGIKIGIQECQHQFRGRRWNCTTVHDSLAIFGPVLDKATRESAFVHAIASAGVAFAVTRSCAEGTAAICGCSSRHQGSPGKGWKWGGCSEDIEFGGMVSREFADARENRPDARSAMNRHNNEAGRQAIASHMHLKCKCHGLSGSCEVKTCWWSQPDFRAIGDFLKDKYDSASEMVVEKHRESRGWVETLRPRYTYFKVPTERDLVYYEASPNFCEPNPETGSFGTRDRTCNVSSHGIDGCDLLCCGRGHNARAERRREKCRCVFHWCCYVSCQECTRVYDVHTCK

Key:
Type in all cases: cell-based, human
β-catenin signaling = test: Top-Flash luciferase reporter assay for β-catenin activity in hESCs; conditions: hESC cultures; Top-Flash normalized to Fop-Flash
Method: Data is expressed as the fold-increase in luciferase activity over untreated cells after normalization to the Fop-Flash control. All assays were performed in triplicate and represented as +/−standard deviation. (B) Top-Flash activity in hESCs grown in defined media treated with Wnt3a, Dkk1, Wnt3a and Dkk1 or BIO. Experiments were performed in triplicate and represented as +/−standard deviation.

WA09 hESCs [1] = test: hESC differentiation, immunostaining for neural crest markers (p75, Ap2, Hnk1) and NPC markers (Pax6, Sox2)
Method: NPC differentiation was performed as described (18). […] Media was replaced every day. Additional experiments were performed by adding 25 ng/ml Wnt3a, 500 ng/ml Noggin or 5-50 ng/ml of BMP4 (R&D Systems) to SB media. For peripheral neuron differentiation, neural crest cells were plated in poly-L-ornithine/laminin or Geltrex-coated 4-well chamber slides. The following day, SB media was switched to DMEM/F12 N2 supplemented media with BDNF (10 ng/ml), GDNF (10 ng/ml), NGF (10 ng/ml), neurotrophin-3 (10 ng/ml), ascorbic acid (200 μM) and dbcAMP (0.5 mM). Cells were grown for 10-14 days and assayed by immunocytochemisty. Neural crest cells were cultured in media containing 10% fetal bovine serum and passed every 4-5 days. Osteocyte, adipocyte and chondrocyte differentiation was performed according to manufacturer directions using StemPro Osteogenesis Kit, StemPro Chondrogenesis Differentiation Kit, StemPro Adipogenesis Differentiation Kit (Invitrogen), respectively.
Cells were fixed in 4% paraformaldehyde in phosphate buffered saline (PBS) and stained with primary antibodies listed in attached Table 1 (below). […] DNA was visualized by staining with DAPI. For flow cytometry, one million live cells dissociated with Accutase were re-suspended in PBS and incubated for 30 minutes on ice with primary conjugated antibodies, listed in Table 1. […] Cells were analyzed using the CyAN ADP (Beckman Coulter) and FlowJo software.

WA09 hESCs [2] = test: hESC differentiation to neural crest-like versus neural progenitor cells, flow cytometry for p75 and Hnk1; conditions: for generation of Hnk1+ p75+ (Hnk1bright p75bright) neural crest-like population: WA09 hESCs treated 15 days, FIG. 2A, factors added to or omitted from SB 431542/BIO media; for proportion of Hnk1bright p75bright cells: dose-response, added to cultures treated with SB 431542 and Noggin, BIO 0-2 µM, Wnt3a 0-50 ng/ml
Method: NPC differentiation was performed as described (18). Briefly, cells were plated on Geltrex-coated plates in defined media without Activin A, supplemented with 20 μM SB 431542 (Tocris) and 500 ng/ml Noggin (R&D systems) for 11 days with or without 2 μM of (2′Z,3′E)-6-Bromoindirubin-3′-oxime (BIO) (GSK3 Inhibitor IX, Calbiochem), or 15 ng/ml Dickkopf (R&D Systems). For direct neural crest differentiation, cells were plated at a density of 1×10^5 cells/cm^2 in defined media lacking Activin A, supplemented with 2 μM BIO and 20 μM SB 431542 (SB media). Media was replaced every day. Additional experiments were performed by adding 25 ng/ml Wnt3a, 500 ng/ml Noggin or 5-50 ng/ml of BMP4 (R&D Systems) to SB media. For peripheral neuron differentiation, neural crest cells were plated in poly-L-ornithine/laminin or Geltrex-coated 4-well chamber slides. The following day, SB media was switched to DMEM/F12 N2 supplemented media with BDNF (10 ng/ml), GDNF (10 ng/ml), NGF (10 ng/ml), neurotrophin-3 (10 ng/ml), ascorbic acid (200 μM) and dbcAMP (0.5 mM). Cells were grown for 10-14 days and assayed by immunocytochemisty. Neural crest cells were cultured in media containing 10% fetal bovine serum and passed every 4-5 days. Osteocyte, adipocyte and chondrocyte differentiation was performed according to manufacturer directions using StemPro Osteogenesis Kit, StemPro Chondrogenesis Differentiation Kit, StemPro Adipogenesis Differentiation Kit (Invitrogen), respectively.
Cells were fixed in 4% paraformaldehyde in phosphate buffered saline (PBS) and stained with primary antibodies listed in attached Table 1 (below). Secondary antibodies were Alexa Fluor 488 and Alexa Fluor 555-conjugated (Invitrogen). DNA was visualized by staining with DAPI. For flow cytometry, one million live cells dissociated with Accutase were re-suspended in PBS and incubated for 30 minutes on ice with primary conjugated antibodies, listed in Table 1. Unconjugated p75 (neurotrophin receptor) and Hnk1 antibodies were detected with Alexa Fluor 633 and Alexa Fluor 488-conjugated secondary antibodies, respectively. Cells were analyzed using the CyAN ADP (Beckman Coulter) and FlowJo software.

[3] = BIO added to SB 431542 and Noggin (Smad inhibition), 12 days

Molecule	generation of Hnk1+ p75+ (Hnk1bright p75bright) neural crest-like population (WA09 hESCs [2])	proportion of Hnk1bright p75bright cells (WA09 hESCs [2])	further results
O=C1Nc2cc(Br)ccc2/C1=C1/Nc2ccccc2/C1=N\O [BIO, (2′Z,3′E)-6-Bromoindirubin-3′-oxime]	ineffective	increased the proportion of Hnk1^bright p75^bright cells in a dose-dependent manner	activation of β-catenin-dependent luciferase reporter (canonical Wnt pathway) (β-catenin signaling): activates β-catenin signaling; also recorded: efficiently activates the canonical Wnt pathway; formation of Pax6+ cells (WA09 hESCs [1]; [3]): suppresses this; also recorded: severely inhibited the formation of Pax6^+ cells; percentage of p75+ cells (WA09 hESCs [1]; [3]): generates p75+ Pax6− neural crest-like cells; also recorded: markedly increasing the percentage of p75^+ cells; Sox2 expression (WA09 hESCs [1]; immunostaining, Smad signaling suppressed, range of BIO concentrations): dose-dependent response
NC(=O)c1ccc(-c2nc(-c3ccc4c(c3)OCO4)c(-c3ccccn3)[nH]2)cc1 [SB 431542]	ineffective		
B1	no major impact		
B2			p75bright cells in NPC cultures (WA09 hESCs [2]; NPC cultures obtained by treatment with Noggin and SB 431542): decreases the p75bright population; also recorded: severely reduced the low level of p75^bright cells
B3	suppressed the transition to an Hnk1^bright p75^bright state		
B4	can substitute for BIO	increased the proportion of Hnk1^bright p75^bright cells in a dose-dependent manner	
